Data published in patent publication US10829473B2, “Modulators of the cystic fibrosis transmembrane conductance regulator protein and methods of use” (AbbVie Overseas S.Á.R.L., priority 2017, dated 2020).
Read-outs that look alike come from different tables or passages of the source. Marks after values point to notes of the source that are not given here.

Target: T1, F508delCFTR (Homo sapiens, UniProt P13569, DEL508-508)
T1 construct: expressed in transfected cells; host or cells: CFBE41o- human lung derived epithelial cells (CFBE41o-F508delCFTR-HRP), doxycycline-inducible
Experiment: Cell Surface Expression-Horse Radish Peroxidase (CSE-HRP) Assay;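 as to EC50 (with co-corrector): co-corrector chromenyl benzoic acid corrector at 2 or 3 µM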;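 as to Maximum % activity (without co-corrector): % of on-plate positive control chromenyl benzoic acid corrector at 2 or 3 µM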
Assay type: cell-based
Conditions: for Maximum % activity (with co-corrector) / Emax: maximum at any tested concentration; for Emax: read-out: Maximum % activity (without co-corrector)
How it was run: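 Corrector compounds were given as 8-point 3-fold series from 20 or 30 μM, with or without a 2 μM co-corrector, for 18-24 h at 33 °C. Surface HRP was read by luminol luminescence as % of positive control; variable-Hill-slope sigmoidal fitting gave EC50 from triplicate plates.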

[1] = test compound alone, without co-corrector, read-out: EC50 (without co-corrector)
[2] = with co-corrector, read-out: EC50 (with co-corrector)
[3] = test compound with co-corrector
[4] = test compound with co-corrector, read-out: EC50 (with co-corrector)
[5] = test compound without co-corrector
[6] = test compound without co-corrector, read-out: EC50 (without co-corrector)

T1 sequence (P13569 with tags, fused parts or gaps DEL508-508): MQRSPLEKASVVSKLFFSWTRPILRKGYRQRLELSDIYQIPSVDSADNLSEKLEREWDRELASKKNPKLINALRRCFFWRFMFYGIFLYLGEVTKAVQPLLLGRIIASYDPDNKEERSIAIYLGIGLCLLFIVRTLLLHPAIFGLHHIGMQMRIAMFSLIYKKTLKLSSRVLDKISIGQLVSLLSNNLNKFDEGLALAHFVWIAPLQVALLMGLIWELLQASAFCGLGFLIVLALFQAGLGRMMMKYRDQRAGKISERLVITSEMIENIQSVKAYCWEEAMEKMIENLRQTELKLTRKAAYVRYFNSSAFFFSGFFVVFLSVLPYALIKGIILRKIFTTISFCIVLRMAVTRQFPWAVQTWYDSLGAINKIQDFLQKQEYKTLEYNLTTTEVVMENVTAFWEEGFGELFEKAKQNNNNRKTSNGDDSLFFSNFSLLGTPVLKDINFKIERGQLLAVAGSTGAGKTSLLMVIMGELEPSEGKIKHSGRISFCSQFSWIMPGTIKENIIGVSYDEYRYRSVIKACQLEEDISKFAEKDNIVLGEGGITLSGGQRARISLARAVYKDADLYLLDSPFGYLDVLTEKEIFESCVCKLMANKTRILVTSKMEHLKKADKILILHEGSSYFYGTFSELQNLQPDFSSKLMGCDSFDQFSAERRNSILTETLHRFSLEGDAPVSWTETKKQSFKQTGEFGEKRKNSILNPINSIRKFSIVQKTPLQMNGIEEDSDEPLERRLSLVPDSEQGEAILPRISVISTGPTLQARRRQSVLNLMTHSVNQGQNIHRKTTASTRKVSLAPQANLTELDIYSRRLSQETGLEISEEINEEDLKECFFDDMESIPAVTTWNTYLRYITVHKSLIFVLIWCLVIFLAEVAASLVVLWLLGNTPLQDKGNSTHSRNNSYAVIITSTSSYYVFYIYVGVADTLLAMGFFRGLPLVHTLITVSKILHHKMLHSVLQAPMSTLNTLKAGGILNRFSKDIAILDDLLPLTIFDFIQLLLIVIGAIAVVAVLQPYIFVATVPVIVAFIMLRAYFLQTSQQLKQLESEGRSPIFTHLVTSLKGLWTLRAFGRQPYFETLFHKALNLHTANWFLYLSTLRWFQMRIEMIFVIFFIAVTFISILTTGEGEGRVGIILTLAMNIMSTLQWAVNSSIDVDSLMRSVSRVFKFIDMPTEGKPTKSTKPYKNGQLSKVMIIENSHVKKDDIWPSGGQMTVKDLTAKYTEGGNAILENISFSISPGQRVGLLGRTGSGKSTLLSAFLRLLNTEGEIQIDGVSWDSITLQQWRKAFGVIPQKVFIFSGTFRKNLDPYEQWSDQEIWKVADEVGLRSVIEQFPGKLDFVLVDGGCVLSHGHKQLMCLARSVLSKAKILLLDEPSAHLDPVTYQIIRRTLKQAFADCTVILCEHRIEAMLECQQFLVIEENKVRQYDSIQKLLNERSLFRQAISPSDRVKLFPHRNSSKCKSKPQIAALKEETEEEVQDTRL

| EC50 [1] [µM] | Maximum % activity (with co-corrector) (with co-corrector) | EC50 [2] [µM] | Emax (without co-corrector) [%] | Maximum % activity (with co-corrector) [3] | EC50 [4] [µM] | Emax [5] [%] | EC50 [6] [µM] | EC50 (with co-corrector) [3] | EC50 (without co-corrector) [5] | SMILES |
| --- | --- | --- | --- | --- | --- | --- | --- | --- | --- | --- |
| < 3 | +++ (≥350) | < 3 | > 150 | – | – | – | – | – | – | CCc1cccc(OC)c1C1(C(=O)NS(=O)(=O)c2cccc3nc(C)ccc23)CC1 [Example III-133, 1-(2-ethyl-6-methoxyphenyl)-N-(2-methylquinoline-5-sulfonyl)cyclopropane-1-carboxamide] |
| – | – | – | – | ++ (≥150 and <350) | – | 50 to 150 | – | ++^a | ++^a | O=C(NS(=O)(=O)c1cccc2ncccc12)C1(c2cccnc2N2CCCC2)CC1 [GII-33, 1-[2-(pyrrolidin-1-yl)pyridin-3-yl]-N-(quinoline-5-sulfonyl)cyclopropane-1-carboxamide] |
| – | – | – | – | ++ (≥150 and <350) | – | < 50 | – | ++^a | ++^a | COc1ccc(C2(C(=O)NS(=O)(=O)c3cccc4c3CCCN4)CC2)c(C)n1 [GIII-15] |
| – | – | – | – | +++ (≥350) | 3 to 10 | > 150 | 3 to 10 | – | – | CCc1cnc(N(C)C)c(C2(C(=O)NS(=O)(=O)c3cccc4nc(C)ccc34)CC2)c1 [GII-48, 1-[2-(dimethylamino)-5-ethylpyridin-3-yl]-N-(2-methylquinoline-5-sulfonyl)cyclopropane-1-carboxamide] |
| – | – | – | – | ++ (≥150 and <350) | – | 50 to 150 | – | ++^a | ++^a | COCCOc1ncc(OC)cc1C1(C(=O)NS(=O)(=O)c2cccc3ncccc23)CC1 [GII-44, 1-[5-methoxy-2-(2-methoxyethoxy)pyridin-3-yl]-N-(quinoline-5-sulfonyl)cyclopropane-1-carboxamide] |
| – | – | – | – | ++ (≥150 and <350) | – | 50 to 150 | – | ++^a | ++^a | Cc1ccc2c(S(=O)(=O)NC(=O)C3(c4cccnc4N4CCCC4)CC3)cccc2n1 [GII-34, N-(2-methylquinoline-5-sulfonyl)-1-[2-(pyrrolidin-1-yl)pyridin-3-yl]cyclopropane-1-carboxamide] |
| – | – | – | – | ++ (≥150 and <350) | – | 50 to 150 | – | ++^a | ++^a | CCc1ccncc1C1(C(=O)NS(=O)(=O)c2cccc3ccccc23)CC1 [GII-20, 1-(4-ethylpyridin-3-yl)-N-(naphthalene-1-sulfonyl)cyclopropane-1-carboxamide] |
| – | – | – | – | ++ (≥150 and <350) | – | 50 to 150 | – | ++^a | ++^a | COc1cc(C)c(C2(C(=O)NS(=O)(=O)c3cccc4c3CCCN4)CC2)cn1 [GIII-17] |
| 3 to 10 | ++ (≥150 and <350) | 3 to 10 | < 50 | – | – | – | – | – | – | Cc1ccccc1S(=O)(=O)NC(=O)C1(c2ccc(Cl)cc2)CC1 [Example III-88, 1-(4-chlorophenyl)-N-(2-methylbenzene-1-sulfonyl)cyclopropane-1-carboxamide] |
| 3 to 10 | +++ (≥350) | < 3 | > 150 | – | – | – | – | – | – | Cc1ccc(C)c(C2(C(=O)NS(=O)(=O)c3cccc4[nH]ncc34)CC2)c1 [Example III-127, 1-(2,5-dimethylphenyl)-N-(1H-indazole-4-sulfonyl)cyclopropane-1-carboxamide] |
| < 3 | +++ (≥350) | < 3 | > 150 | – | – | – | – | – | – | CCOc1ccc(C)cc1C1(C(=O)NS(=O)(=O)c2cccc3nc(N(C)C)ccc23)CC1 [Example III-134, N-[2-(dimethylamino)quinoline-5-sulfonyl]-1-(2-ethoxy-5-methylphenyl)cyclopropane-1-carboxamide] |

Further lines, the molecule ahead of its results:

| SMILES | EC50 [1] [µM] | Maximum % activity (with co-corrector) (with co-corrector) | EC50 [2] [µM] | Emax (without co-corrector) [%] | Maximum % activity (with co-corrector) [3] | EC50 [4] [µM] | Emax [5] [%] | EC50 [6] [µM] | EC50 (with co-corrector) [3] | EC50 (without co-corrector) [5] |
| --- | --- | --- | --- | --- | --- | --- | --- | --- | --- | --- |
| COc1ccc(C2(OC)CCC2)cc1C1(C(=O)NS(=O)(=O)c2cccc3ncccc23)CC1 [Example I-88, 1-[2-methoxy-5-(1-methoxycyclobutyl)phenyl]-N-(quinoline-5-sulfonyl)cyclopropane-1-carboxamide] | 3 to 10 | +++ (≥350) | < 3 | > 150 | – | – | – | – | – | – |
| COc1ncc(C2CCC2)cc1C1(C(=O)NS(=O)(=O)c2cccc3ccn(C)c23)CC1 [Example I-20, 1-(5-cyclobutyl-2-methoxypyridin-3-yl)-N-(1-methyl-1H-indole-7-sulfonyl)cyclopropane-1-carboxamide] | < 3 | +++ (≥350) | < 3 | > 150 | – | – | – | – | – | – |
| Cc1ccc2c(S(=O)(=O)NC(=O)C3(c4cc(C5CC5)cnc4OCC(C)C)CC3)cccc2n1 [Example GI-49, 1-[5-cyclopropyl-2-(2-methylpropoxy)pyridin-3-yl]-N-(2-methylquinoline-5-sulfonyl)cyclopropane-1-carboxamide] | – | – | – | – | +++ (≥350) | < 3 | > 150 | < 3 | – | – |
| CC(C)COc1ccc(OC(C)C)c(C2(C(=O)NS(=O)(=O)c3cccc4[nH]ccc34)CC2)n1 [Example GI-89, N-(1H-indole-4-sulfonyl)-1-{6-(2-methylpropoxy)-3-[(propan-2-yl)oxy]pyridin-2-yl}cyclopropane-1-carboxamide] | – | – | – | – | +++ (≥350) | < 3 | > 150 | < 3 | – | – |
| COc1cc(C2CCC2)cc(OC)c1C1(C(=O)NS(=O)(=O)c2cccc3ccn(C)c23)CC1 [II-66] | < 3 | +++ (≥350) | < 3 | > 150 | – | – | – | – | – | – |
| COc1cnc(OC(C)C)c(C2(C(=O)NS(=O)(=O)c3cccc4[nH]ccc34)CC2)c1 [Example GI-75, N-(1H-indole-4-sulfonyl)-1-{5-methoxy-2-[(propan-2-yl)oxy]pyridin-3-yl}cyclopropane-1-carboxamide] | – | – | – | – | +++ (≥350) | < 3 | > 150 | 3 to 10 | – | – |
| COc1cccc(C)c1C1(C(=O)NS(=O)(=O)c2cccc3ccc(C)nc23)CC1 [II-45] | 3 to 10 | +++ (≥350) | < 3 | > 150 | – | – | – | – | – | – |
| CCOCC(C)(C)c1ccc(OC)c(C2(C(=O)NS(=O)(=O)c3cccc4ncccc34)CC2)c1 [II-110] | < 3 | +++ (≥350) | < 3 | > 150 | – | – | – | – | – | – |
| COc1cc(C2(C(=O)NS(=O)(=O)c3cccc4nc(N)ccc34)CC2)c(OCC(C)C)cn1 [Example I-92, N-(2-aminoquinoline-5-sulfonyl)-1-[2-methoxy-5-(2-methylpropoxy)pyridin-4-yl]cyclopropane-1-carboxamide] | < 3 | +++ (≥350) | < 3 | > 150 | – | – | – | – | – | – |
| CCOc1cccc(OCC)c1C1(C(=O)NS(=O)(=O)c2cccc3ncccc23)CC1 [Example I-66, 1-(2,6-diethoxyphenyl)-N-(quinoline-5-sulfonyl)cyclopropane-1-carboxamide] | < 3 | +++ (≥350) | < 3 | > 150 | – | – | – | – | – | – |
| COc1ccc(C)cc1C1(C(=O)NS(=O)(=O)c2cccc3[nH]ccc23)CC1 [Example I-49, N-(1H-indole-4-sulfonyl)-1-(2-methoxy-5-methylphenyl)cyclopropane-1-carboxamide] | < 3 | +++ (≥350) | < 3 | > 150 | – | – | – | – | – | – |
| COCCOc1ncc(C2CCC2)cc1C1(C(=O)NS(=O)(=O)c2cccc3[nH]ccc23)CC1 [Example GI-99, 1-[5-cyclobutyl-2-(2-methoxyethoxy)pyridin-3-yl]-N-(1H-indole-4-sulfonyl)cyclopropane-1-carboxamide] | – | – | – | – | +++ (≥350) | < 3 | > 150 | < 3 | – | – |
| COc1ccc(C2CCC2)cc1C1(C(=O)NS(=O)(=O)c2cccc3cnn(C)c23)CC1 [Example I-60, 1-(5-cyclobutyl-2-methoxyphenyl)-N-(1-methyl-1H-indazole-7-sulfonyl)cyclopropane-1-carboxamide] | < 3 | +++ (≥350) | < 3 | > 150 | – | – | – | – | – | – |
| COc1ccc(C2CCC2)cc1C1(C(=O)NS(=O)(=O)c2cccc3c2ccn3C)CC1 [Example I-58, 1-(5-cyclobutyl-2-methoxyphenyl)-N-(1-methyl-1H-indole-4-sulfonyl)cyclopropane-1-carboxamide] | 3 to 10 | +++ (≥350) | < 3 | > 150 | – | – | – | – | – | – |
| COc1ccc(C2CC2)cc1C1(C(=O)NS(=O)(=O)c2cccc3ncccc23)CC1 [Example I-13, 1-(5-cyclopropyl-2-methoxyphenyl)-N-(quinoline-5-sulfonyl)cyclopropane-1-carboxamide] | < 3 | – | < 3 | – | – | – | – | – | – | – |
| COc1ncc(C(F)(F)F)cc1C1(C(=O)NS(=O)(=O)c2cccc3c2ccn3C)CC1 [II-18] | 3 to 10 | +++ (≥350) | < 3 | > 150 | – | – | – | – | – | – |
| CCOc1ccc(C)cc1C1(C(=O)NS(=O)(=O)c2cccc3nc(C)ccc23)CC1 [Example I-83, 1-(2-ethoxy-5-methylphenyl)-N-(2-methylquinoline-5-sulfonyl)cyclopropane-1-carboxamide] | < 3 | +++ (≥350) | < 3 | > 150 | – | – | – | – | – | – |
